How the values were obtained:
[1] = Hygroscopicity by dynamic vapor sorption (DVS) of crystalline forms, salts and co-crystals; format: physicochemical
Protocol: Hygroscopicity was studied using dynamic vapor sorption (DVS, TA Q5000 SA, TA Instruments, New Castle, DE or DVS, DVS Intrinsic, Surface Measurement Systems, London, UK). […] The water sorption and desorption were studied as a function of relative humidity (RH) at 25° C. […] Data analysis was performed using Universal Analysis 2000 Version 4.7A (TA Instruments, New Castle, DE) for TA DVS runs and Microsoft Excel for SMS DVS runs.

[2] = test system: HIV-1 (HXB2) site directed mutant N155H; test: HIV-1 replication in MT-4 cells, INSTI resistant site-directed mutant N155H; format: cell-based; settings: 5 days, Cell Titer Glo, at least 3 independent experiments in quadruplicate
Protocol: (§1) The compound of Formula I, along with control compounds bictegravir and raltegravir, were tested in a high-throughput 384-well assay format for ability to inhibit the replication of HIV-1 (HXB2) in MT-4 cells. Compounds were serially diluted (1:3) in 10 ul DMSO on 384-well plates and then diluted 187-fold into complete RPMI media using the uFLow and Biomek FX. 0.4 uL of compound was added in quadruplicate to 384-well assay plates. Each plate contained 8 test compounds, plus DMSO negative and 5 uM AZT positive controls. 1 mL aliquots of 2M MT-4 cells were pre-infected for 1 hr, @ 37° C. with 25 uL (MT-4) of either RPMI (mock-infected) or a fresh 1:250 dilution of an HIV-1 (HXB2 WT or site directed mutants containing either single INSTI Mutations E92Q, Y143R, Q148R, N155H, or R263K or double mutations E92Q/N155H, E138K/Q148K, or G140S/Q148R) concentrated ABI stock. Infected and uninfected cells were diluted in RPMI and 35 uL containing 2000 MT-4 cells was added to each well of assay plates, using the uFLow and subsequently incubated for 5 days at 37° C. in an incubator set at 5% CO2 and 90% humidity. After 5 days, 22 uL Cell Titer Glo (Promega, Madison, WI, Cat #G7573) was added to the assay plates with a Biotek uFlow Workstation. Plates were subsequently placed on a Perkin Elmer Envision Plate Reader for 5 minutes before the luminescence signal was read. EC50 values were defined as the compound concentration that causes a 50 decrease in luminescence signal, a measure of HIV-1 replication, and were calculated in Accord (online tool) using a one-site dose-response model to generate sigmoidal curve fits. Fold shifts for mutant viruses were obtained by calculating EC50 values relative to the HXB2 WT control.
(§2) The mean fold change values (relative to WT) are from at least 3 independent experiments assayed in quadruplicate.

[3] = test system: HIV-1 (HXB2) site directed mutant R263K; test: HIV-1 replication in MT-4 cells, INSTI resistant site-directed mutant R263K; format: cell-based; settings: 5 days, Cell Titer Glo, at least 3 independent experiments in quadruplicate
Protocol: as §1, §2

[4] = test system: HIV-1 (HXB2) site directed mutant E138K/Q148K; test: HIV-1 replication in MT-4 cells, INSTI resistant site-directed mutant E138K/Q148K; format: cell-based; settings: 5 days, Cell Titer Glo, at least 3 independent experiments in quadruplicate
Protocol: as §1, §2

[5] = test system: HIV-1 (HXB2) site directed mutant E92Q/N155H; test: HIV-1 replication in MT-4 cells, INSTI resistant site-directed mutant E92Q/N155H; format: cell-based; settings: 5 days, Cell Titer Glo, at least 3 independent experiments in quadruplicate
Protocol: as §1, §2

[6] = test system: HIV-1 (HXB2) site directed mutant G140S/Q148R; test: HIV-1 replication in MT-4 cells, INSTI resistant site-directed mutant G140S/Q148R; format: cell-based; settings: 5 days, Cell Titer Glo, at least 3 independent experiments in quadruplicate
Protocol: as §1, §2

[7] = test system: HIV-1 (HXB2) site directed mutant E92Q; test: HIV-1 replication in MT-4 cells, INSTI resistant site-directed mutant E92Q; format: cell-based; settings: 5 days, Cell Titer Glo, at least 3 independent experiments in quadruplicate
Protocol: as §1, §2

[8] = test system: HIV-1 (HXB2) site directed mutant Q148R; test: HIV-1 replication in MT-4 cells, INSTI resistant site-directed mutant Q148R; format: cell-based; settings: 5 days, Cell Titer Glo, at least 3 independent experiments in quadruplicate
Protocol: as §1, §2

[9] = test system: HIV-1 (HXB2) site directed mutant Y143R; test: HIV-1 replication in MT-4 cells, INSTI resistant site-directed mutant Y143R; format: cell-based; settings: 5 days, Cell Titer Glo, at least 3 independent experiments in quadruplicate
Protocol: as §1, §2

[10] = test system: NRTI-resistant (NRTI-r) HIV-1 mutants (LAI-based viruses encoding RT mutations K65R, M184V, M41L+T215Y); test: Antiviral potency against panel of HIV-1 mutants: NRTI-resistant; format: cell-based; settings: relative to WT; at least three experiments run in triplicate; controls: NRTIs (TAF, FTC)
Protocol: (§3) The human T-lymphoblastoid MT-2 and SupTI cell lines were obtained from the NIH AIDS Reagent Program (Germantown, MD) and maintained in RPMI-1640 medium supplemented with 10% heat-inactivated fetal bovine serum, 100 units/mL penicillin, and 10 μg/mL streptomycin (complete RPMI media). Cells were passaged twice per week and kept at densities less than 800,000 cells per mL. Adherent HEK293T cells were obtained from the Gladstone Institute for Virology and Immunology (San Francisco, CA) and maintained at densities below 80% confluency in Dulbecco's Modified Eagle Medium (DMEM) (Gibco) supplemented with 10% heat-inactivated FBS, 100 units/mL penicillin, and 10 μg/mL streptomycin (complete DMEM media). Unless otherwise noted, HIV-1 recombinant strains carrying mutations were prepared by transfecting infectious proviral pLAI-based or pHXB2-based cDNA clones into MT-2 cells and harvesting the cell supernatants. The NNRTI-resistant HXB2-based viruses encoding reverse transcriptase (RT) mutations (K103N, Y181C, Y188L, L100I+K103N, and G190A) were constructed by site-directed mutagenesis. The NRTI-resistant LAI-based viruses encoding RT mutations K65R, M184V, and M41L+T215Y were constructed by site-directed mutagenesis. […].
(§4) The EC50 fold change range is the mean±standard deviation from at least three experiments run in triplicate. […]

[11] = test system: CAI-resistant (CAI-r) HIV-1 reporter viruses encoding capsid mutations (L56I, N57H, M66I, K70N, Q67H+N74D, Q67H+T107N); test: Antiviral potency against panel of HIV-1 mutants: CAI-resistant single cycle reporter viruses; format: cell-based; settings: relative to WT; at least three experiments run in triplicate; control: CAI (LEN)
Protocol: as §3, §4

[12] = test system: NNRTI-resistant (NNRTI-r) HIV-1 mutants (HXB2-based viruses encoding RT mutations K103N, Y181C, Y188L, L100I+K103N, G190A); test: Antiviral potency against panel of HIV-1 mutants: NNRTI-resistant; format: cell-based; settings: relative to WT; at least three experiments run in triplicate; control: NNRTI (EFV)
Protocol: as §3, §4

[13] = test system: PI-resistant (PI-r) HIV-1 mutants (HXB2-based viruses encoding protease mutations 150V, 184V+L90M, G48V+V82A+L90M, G48V+V82S); test: Antiviral potency against panel of HIV-1 mutants: PI-resistant; format: cell-based; settings: relative to WT; at least three experiments run in triplicate; controls: PIs (DRV, ATV)
Protocol: as §3, §4

| SMILES | form of the material post DVS experiment ([1]; after DVS sorption/desorption at 25° C.) | water absorbed (DVS) ([1]; up to 95% RH at 25° C.) | Mean EC50 Fold Change (relative to WT), N155H [2] | Mean EC50 Fold Change (relative to WT), R263K [3] | Mean EC50 Fold Change (relative to WT), E138K/Q148K [4] | Mean EC50 Fold Change (relative to WT), E92Q/N155H [5] | Mean EC50 Fold Change (relative to WT), G140S/Q148R [6] | Mean EC50 Fold Change (relative to WT), E92Q [7] | Mean EC50 Fold Change (relative to WT), Q148R [8] | Mean EC50 Fold Change (relative to WT), Y143R [9] | EC50 Fold Change, Range, NRTI-r [10] | EC50 Fold Change, Range, CAI-r [11] | EC50 Fold Change, Range, NNRTI-r [12] | EC50 Fold Change, Range, PI-r [13] |
| --- | --- | --- | --- | --- | --- | --- | --- | --- | --- | --- | --- | --- | --- | --- |
| C[C@@H]1C=C[C@H](C)N2CN1n1cc(C(=O)NCc3c(F)cc(F)cc3F)c(=O)c(O)c1C2=O [Compound of Formula I, Form I, (1S,2R,5S)-8-hydroxy-2,5-dimethyl-7,9-dioxo-N-(2,4,6-trifluorobenzyl)-2,5,7,9-tetrahydro-1,6-methanopyrido[1,2-b][1,2,5]triazonine-10-carboxamide] | not have changed form | about 0.15% | – | – | – | – | – | – | – | – | – | – | – | – |
| Cc1nnc(C(=O)NC(C)(C)c2nc(C(=O)NCc3ccc(F)cc3)c(O)c(=O)n2C)o1 [Raltegravir] | – | – | 6.1 fold | 1.1 fold | 6.5 fold | 58 fold | 108 fold | 4.8 fold | 16 fold | 18 fold | – | – | – | – |
| C[C@@H]1C=C[C@H](C)N2CN1n1cc(C(=O)NCc3c(F)cc(F)cc3F)c(=O)c(O)c1C2=O [Compound of Formula I, (1S,2R,5S)-8-hydroxy-2,5-dimethyl-7,9-dioxo-N-(2,4,6-trifluorobenzyl)-2,5,7,9-tetrahydro-1,6-methanopyrido[1,2-b][1,2,5]triazonine-10-carboxamide] | – | – | 1.9 fold | 2.0 fold | 9.5 fold | 1.8 fold | 5.5 fold | 2.7 fold | 1.0 fold | 2.5 fold | 0.4-0.8 fold | 0.8-1.2 fold | 0.7-2.4 fold | 0.4-1.3 fold |
| O=C(NCc1c(F)cc(F)cc1F)c1cn2c(c(O)c1=O)C(=O)N1[C@H]3CC[C@H](C3)O[C@@H]1C2 [Bictegravir] | – | – | 1.3 fold | 1.9 fold | 4.4 fold | 1.2 fold | 2.1 fold | 1.6 fold | 0.7 fold | 1.8 fold | – | – | – | – |
